Experimental data reported in patent US11702400B2, “Salt types, crystal forms, and preparation methods for benzopyrazole compounds as RHO kinase inhibitors” (MEDSHINE DISCOVERY INC., priority 2019, dated 2023).
Each block holds one molecule with its values, some of them ahead of it.

Experiments:
[1] = Solid stability test of the crystal form B of the compound of formula (II-2) (XRPD); format: physicochemical
Procedure: About 10 mg of the crystal form was accurately weighed and added to a dry and clean glass flask, spread into a thin layer, covered with aluminum foil, pierced small holes and placed under the influence factor test conditions and under accelerated conditions. Samples placed under illumination (visible light 1200000 Lux, UV 200 W) conditions were placed in clear glass flasks, fully exposed, and samples used for XRPD detection were placed separately.
After the samples were removed at the time point, the cover was covered, and the flask was sealed using sealing film, and stored in −20° C. refrigerator. When preparing the sample, the sample was removed from the refrigerator, restored to room temperature; 80% ACN (10 mL) was added, and the sample was dissolved by sonication for 2 min to obtain a solution with a concentration of about 1 mg/mL, then the liquid phase was used for injection analysis, and the detection results were compared with the initial detection results on day 0.
Preparation of standard solution on day 0: About 10 mg of the crystal form was weighed and added to a 10 mL volumetric flask, dissolved with 80% ACN and the volume was fixed to the scale.

[2] = Pharmacokinetic study of the racemate of the compound of formula (I) in SD rats; format: in vivo
Procedure: 2.1 Pharmacokinetic Study of the Racemate of the Compound of Formula (I) in SD Rats
Experimental purpose: To study the pharmacokinetics of the compounds in SD rats
Experimental material: SD rats (male, 7-10 weeks old, WTLH/SLAC)
Experimental procedure: The pharmacokinetic characteristics of the compounds were tested in rodents after intravenous (IV) and oral (PO) administration using standard protocols. The candidate compounds were prepared into 0.2 mg/mL clarified solutions and administrated to rats for single intravenous injection and oral administration. The solvent for both intravenous and oral administration was 5% DMSO/95% (10% hydroxypropyl β-cyclodextrin) aqueous solution. […] Whole blood samples were collected within 24 hours, centrifuged at 3000 g for 15 minutes, and the supernatant was separated to obtain plasma samples, and the proteins were precipitated by adding acetonitrile solution containing internal standard; the mixture was well mixed and centrifuged, and the supernatant was injected for quantitative analysis of plasma drug concentrations by LC-MS/MS analysis method, and pharmacokinetic parameters were calculated, such as peak concentration (Cmax), clearance rate (CL), half-life (T1/2), […] (Vdss), area under the drug-time curve (AUC0-last), bioavailability (F), etc.

[3] = biological target: ROCK1 (Homo sapiens, UniProt Q13464); assay: In vitro evaluation of ROCK protein kinase inhibitory activity (33P-ATP filter-binding), ROCK1; format: biochemical; settings: 1 nM kinase, 20 μM Long S6 Kinase substrate peptide, 2 hours room temperature
Chain of ROCK1 (Q13464 whole entry): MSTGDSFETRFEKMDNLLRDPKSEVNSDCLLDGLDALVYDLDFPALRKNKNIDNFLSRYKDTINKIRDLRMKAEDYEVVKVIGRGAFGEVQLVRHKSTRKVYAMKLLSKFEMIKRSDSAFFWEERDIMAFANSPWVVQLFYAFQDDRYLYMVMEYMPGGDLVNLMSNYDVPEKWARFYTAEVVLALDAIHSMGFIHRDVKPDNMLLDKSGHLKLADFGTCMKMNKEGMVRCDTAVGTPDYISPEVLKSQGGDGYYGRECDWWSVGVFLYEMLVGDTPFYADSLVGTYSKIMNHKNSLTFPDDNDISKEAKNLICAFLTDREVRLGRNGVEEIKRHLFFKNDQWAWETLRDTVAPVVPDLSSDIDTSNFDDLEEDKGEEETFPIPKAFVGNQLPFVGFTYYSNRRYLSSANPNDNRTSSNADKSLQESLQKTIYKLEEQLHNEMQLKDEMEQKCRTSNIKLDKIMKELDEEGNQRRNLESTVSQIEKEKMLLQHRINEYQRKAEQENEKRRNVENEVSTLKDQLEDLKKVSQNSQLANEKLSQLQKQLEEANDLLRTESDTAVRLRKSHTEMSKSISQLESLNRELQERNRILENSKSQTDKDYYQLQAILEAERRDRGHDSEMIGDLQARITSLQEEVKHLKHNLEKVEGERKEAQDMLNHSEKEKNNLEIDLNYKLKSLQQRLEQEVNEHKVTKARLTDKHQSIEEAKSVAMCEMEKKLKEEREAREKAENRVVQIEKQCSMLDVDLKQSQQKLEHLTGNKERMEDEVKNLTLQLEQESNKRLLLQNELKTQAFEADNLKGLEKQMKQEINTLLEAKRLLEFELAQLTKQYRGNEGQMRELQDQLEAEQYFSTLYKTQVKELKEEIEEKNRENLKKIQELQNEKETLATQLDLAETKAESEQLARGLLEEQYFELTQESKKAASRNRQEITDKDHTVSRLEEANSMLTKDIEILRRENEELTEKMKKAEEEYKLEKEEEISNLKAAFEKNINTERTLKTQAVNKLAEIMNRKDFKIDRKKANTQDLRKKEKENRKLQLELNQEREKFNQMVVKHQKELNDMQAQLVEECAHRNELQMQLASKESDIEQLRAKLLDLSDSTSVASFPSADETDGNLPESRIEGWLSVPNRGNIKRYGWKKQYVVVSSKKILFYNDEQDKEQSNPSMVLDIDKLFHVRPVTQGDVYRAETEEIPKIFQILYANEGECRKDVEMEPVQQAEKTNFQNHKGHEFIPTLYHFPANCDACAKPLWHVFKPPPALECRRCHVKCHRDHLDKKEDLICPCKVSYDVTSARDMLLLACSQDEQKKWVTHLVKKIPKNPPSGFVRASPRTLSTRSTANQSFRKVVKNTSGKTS
Procedure: (§1) 1. In Vitro Evaluation of ROCK Protein Kinase Inhibitory Activity
(§2) Experimental purpose: To detect the IC50 value of ROCK protein kinase inhibition of compounds.
(§3) Experimental materials: assay buffer solution: 20 mM 4-hydroxyethyl piperazine ethanesulfonic acid (pH 7.5), 10 mM magnesium chloride, 1 mM ethylene glycol diethyl ether diaminetetraacetic acid, 0.02% polyoxyethylene lauryl ether, 0.02 mg/mL bovine serum albumin, 0.1 mM sodium vanadate, 2 mM dithiothreitol, 1% DMSO.
Experimental operation: ROCK protein kinase substrate Long S6 Kinase substrate peptide was added to a freshly prepared buffer solution at a concentration of 20 μM, then 1 nM ROCK protein kinase was added, and the mixture was stirred evenly. A series of DMSO diluents containing the compounds to be tested were added with Echo550 (started at […], diluted by 3 times series), preincubated at room temperature for 20 minutes, and ^33P-ATP (radiation intensity 10 μCi/μL) was added to initiate the reaction, and the reaction was carried out for 2 hours at room temperature. […] Radiation intensity was detected using the Filter-Binding method.
(§4) The protein kinase inhibitory activity of the compound was expressed as the residual protein kinase activity relative to the blank substrate (DMSO alone). IC50 values and curves were calculated using the Prism software package (GraphPad Software, San Diego Calif., USA).

[4] = biological target: ROCK2 (Homo sapiens, UniProt O75116); assay: In vitro evaluation of ROCK protein kinase inhibitory activity (33P-ATP filter-binding), ROCK2; format: biochemical
Chain of ROCK2 (O75116 whole entry): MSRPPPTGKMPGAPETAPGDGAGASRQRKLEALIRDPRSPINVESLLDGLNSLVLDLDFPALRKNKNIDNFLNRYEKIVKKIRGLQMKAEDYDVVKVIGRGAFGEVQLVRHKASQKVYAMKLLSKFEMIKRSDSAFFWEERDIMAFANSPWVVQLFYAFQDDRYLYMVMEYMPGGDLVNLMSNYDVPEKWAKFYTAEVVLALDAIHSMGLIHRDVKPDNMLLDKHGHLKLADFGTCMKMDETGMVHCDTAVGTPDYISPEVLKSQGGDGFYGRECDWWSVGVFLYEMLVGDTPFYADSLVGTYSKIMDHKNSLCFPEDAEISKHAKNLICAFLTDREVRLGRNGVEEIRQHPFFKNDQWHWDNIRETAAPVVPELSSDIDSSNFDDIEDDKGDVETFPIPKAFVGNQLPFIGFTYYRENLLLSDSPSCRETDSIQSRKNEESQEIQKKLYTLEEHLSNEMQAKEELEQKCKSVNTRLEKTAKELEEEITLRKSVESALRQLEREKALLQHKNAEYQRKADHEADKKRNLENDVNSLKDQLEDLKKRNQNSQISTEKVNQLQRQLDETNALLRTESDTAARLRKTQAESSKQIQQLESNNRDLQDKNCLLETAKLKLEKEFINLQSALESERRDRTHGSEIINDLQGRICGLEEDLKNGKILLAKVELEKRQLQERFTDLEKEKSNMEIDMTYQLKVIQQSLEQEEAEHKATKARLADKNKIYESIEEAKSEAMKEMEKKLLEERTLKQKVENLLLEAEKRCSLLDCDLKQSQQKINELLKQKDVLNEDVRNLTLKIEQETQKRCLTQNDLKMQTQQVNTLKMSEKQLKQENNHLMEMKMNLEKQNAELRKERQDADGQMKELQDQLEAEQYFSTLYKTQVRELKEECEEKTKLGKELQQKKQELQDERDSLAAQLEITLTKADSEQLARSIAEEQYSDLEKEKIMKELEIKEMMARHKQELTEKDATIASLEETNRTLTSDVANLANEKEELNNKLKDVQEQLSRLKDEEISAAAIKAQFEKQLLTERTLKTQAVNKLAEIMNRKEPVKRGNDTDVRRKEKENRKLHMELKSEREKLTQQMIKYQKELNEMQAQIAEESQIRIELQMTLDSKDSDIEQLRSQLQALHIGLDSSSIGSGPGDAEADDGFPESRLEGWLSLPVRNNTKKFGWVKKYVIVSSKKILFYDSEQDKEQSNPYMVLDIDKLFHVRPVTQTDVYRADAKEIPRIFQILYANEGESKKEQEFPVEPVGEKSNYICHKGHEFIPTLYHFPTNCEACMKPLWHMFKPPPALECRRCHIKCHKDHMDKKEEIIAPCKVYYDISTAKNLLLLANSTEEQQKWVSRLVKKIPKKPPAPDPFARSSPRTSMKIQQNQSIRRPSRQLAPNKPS
Procedure: as §1, §2, §3
Experimental operation: ROCK protein kinase substrate Long S6 Kinase substrate peptide was added to a freshly prepared buffer solution at a concentration of 20 μM, then 1 nM ROCK protein kinase was added, and the mixture was stirred evenly. A series of DMSO diluents containing the compounds to be tested were added with Echo550 (started at […], diluted by 3 times series), preincubated at room temperature for 20 minutes, and ^33P-ATP (radiation intensity 10 μCi/μL) was added to initiate the reaction, and the reaction was carried out for 2 hours at room temperature. The mixture was then filtered using P81 ion exchange paper (Whatman #3698-915) and washed with 0.75% phosphoric acid. Radiation intensity was detected using the Filter-Binding method.
as §4

Crystal form ([1]; 0 day): Crystal form B
Crystal form ([1]; High humidity (relative humidity 75%, open), 5 days): Crystal form B
Crystal form ([1]; High humidity (relative humidity 75%, open), 10 days): Crystal form B
Crystal form ([1]; High humidity (relative humidity 92.5%, open), 5 days): Crystal form B
Crystal form ([1]; High humidity (relative humidity 92.5%, open), 10 days): Crystal form B
Crystal form ([1]; High temperature (60° C., open), 5 days): Crystal form B
Crystal form ([1]; High temperature (60° C., open), 10 days): Crystal form B
Crystal form ([1]; High temperature and humidity (40° C. relative humidity 75%, open), first entry, 5 days): Crystal form B
Crystal form ([1]; High temperature and humidity (40° C. relative humidity 75%, open), first entry, 10 days): Crystal form B
Crystal form ([1]; High temperature and humidity (40° C. relative humidity 75%, open), second entry, 5 days): Crystal form B
Crystal form ([1]; High temperature and humidity (40° C. relative humidity 75%, open), second entry, 10 days): Crystal form B
Crystal form ([1]; Illumination (total illuminance = 1.2 × 10^6 Lux·hr/near UV = 200 w·hr/m^2, open), 5 days): Crystal form B
Crystal form ([1]; Illumination (total illuminance = 1.2 × 10^6 Lux·hr/near UV = 200 w·hr/m^2, open), 10 days): Crystal form B
solid stability (conclusion in words) ([1]; high temperature, high humidity and strong illumination conditions): good stability
SMILES: CC(=O)O.COc1cccc(C(CN)NC(=O)c2cc(-c3ccc4[nH]nc(C)c4c3)ccn2)c1 (centres unmarked)

pharmacokinetic properties (conclusion in words) [2]: good pharmacokinetic properties
Vd ([2]; rat, plasma, male, IV 1 mg/kg, read-out: Tissue distribution Vdss): 6 L/kg
SMILES: COc1cccc(C(CN)NC(=O)c2cc(-c3ccc4[nH]nc(C)c4c3)ccn2)c1 (racemic) [Racemate of compound of formula (I)]

IC50 [3]: 13 nM
inhibitory activity against ROCK2 (conclusion in words) [4]: good inhibitory activity
IC50 ([4]; 1 nM kinase, 20 μM Long S6 Kinase substrate peptide, 33P-ATP, 2 hours room temperature): 2 nM
selectivity for ROCK2 (conclusion in words) ([4]; ROCK2 versus ROCK1): some selectivity
SMILES: COc1cccc([C@@H](CN)NC(=O)c2cc(-c3ccc4[nH]nc(C)c4c3)ccn2)c1 [Compound of formula (II)]
